Data on five compounds can be found in US7655454B1, “Bacteriological culture medium for Campylobacteriaceae species” (priority 2005, dated 2010).

Holding throughout (assay type): cell-based
In assay [1] the test system is Campylobacter jejuni PPMQ2b. To be noted: P<0.05.
In assay [2] the test system is Campylobacter jejuni subsp. jejuni ATCC 33560.
The subject of assay [3] is Campylobacter coli ATCC 33559. The conditions noted are these: P<0.05.
Assay [4] has as its system Campylobacter jejuni PPMQ3b. To be noted: P<0.05.
The mark [5] stands for this setting: approximately 20, 30, 40, or 50 mM acid, P<0.05.
The mark [6] stands for this setting: approximately 30, 40, or 50 mM acid.
The mark [7] stands for this setting: approximately 20, 30, 40, and 50 mM acid.
The mark [8] stands for this setting: any of the concentrations tested.

Where two headings read alike, the source gives them in different places.

Take `CC(O)C(=O)O` (racemic) [Lactic, DL-lactic acid]: the “absorbance compared with cultures grown in non-supplemented media” value in assay [1] (approximately 20, 30, 40, or 50 mM acid) is “significantly greater”; in assay [4] (approximately 20 mM acid), “significantly greater”. The “absorbance compared with cultures in non-supplemented media” value in assay [2] (setting [5]) was “significantly higher”; in assay [3] (setting [6]) it was “significantly greater”.

As for `O=C(O)CC(O)C(=O)O` (racemic) [Malic, DL-malic acid], the “acid concentration required to produce cultures with higher absorbance than in non-supplemented media” value in assay [1] is recorded as “approximately 40 mM”. Besides, the “absorbance compared with cultures in non-supplemented media” value in assay [2] (setting [5]) and in assay [3] (setting [7]) was “significantly higher” in each case. The “acid concentration required to produce cultures with significantly higher absorbances than in non-supplemented media” value in assay [4] is on record as “approximately 20 mM”.

On to `O=C(O)CC(O)(CC(=O)O)C(=O)O` [Citric, citric acid], for which the figures for the “absorbance compared with cultures grown in non-supplemented media” value in assay [1] (setting [8]) and in assay [4] (approximately 20 mM acid) were “not significantly different” and “small but significantly higher”, respectively. Also, the “growth compared with non-supplemented media” value in assay [2] and in assay [3] (approximately 30 or 40 mM acid) was “significantly more growth” throughout. The “absorbance compared with isolates grown in non-supplemented media” value was “not significantly different” in assay [2] (approximately 50 mM acid, P<0.05) and “not significantly different” in assay [3] (approximately 50 mM acid).

Regarding `O=C(O)/C=C/C(=O)O` [Fumaric, fumaric acid], the “acid concentration required to produce cultures with higher absorbance than in non-supplemented media” value in assay [1] is listed as “approximately 30 mM”. Besides, the “absorbance compared with cultures in non-supplemented media” value in assay [2] (setting [5]) and in assay [3] (setting [7]) was “significantly higher” throughout. The “absorbance compared with cultures grown in non-supplemented media” value in assay [4] (approximately 20 mM acid) is on record as “significantly higher”.

In the case of `O=C(O)CCC(=O)O` [Succinic, succinic acid], the “absorbance compared with cultures grown in non-supplemented media” value in assay [1] (setting [8]) is given as “none of the concentrations of succinic acid produced significantly higher absorbances”; in assay [4] (approximately 40 and 50 mM acid) it was “significantly higher”. Further, the “absorbance compared with cultures in non-supplemented media” value in assay [2] (approximately 30, 40, or 50 mM acid, P<0.05) is on record as “significantly higher”; in assay [3] (setting [6]), “significantly higher”.
